# From patent publication US20260041679A1, “METHOD OF TREATING HYPERTENSION WITH THE ALDOSTERONE SYNTHASE INHIBITOR BAXDROSTAT” (CINCOR PHARMA, INC., priority 2022, published 2026)
# Test system: patients with uHTN
# Assay: Study 124 Part 1: seated SBP in patients with uncontrolled hypertension (Example 9)
# Assay type: in vivo, human
# Parameters: key to Model-Based Least-Squares Mean Change from Baseline (SBP) / LSMEANS change from baseline (SBP) / Model-Based Least-Square Mean Change from Baseline (SBP): LS mean change from baseline in seated SBP, mmHg
# Method: Study 124 is a double-blind, placebo-controlled, dose range finding, multicenter study conducted in patients with uHTN receiving background antihypertensive agent(s) that are either an ACEI or an ARB, an ACEI/ARB plus a thiazide diuretic, or an ACEI/ARB plus a calcium channel blocker. The study consists of two parts: Part 1 consists of an 8-week treatment period in which the patients are to be assigned to one of 4 dose groups in equal ratio testing 0.5 mg, 1 mg, and 2 mg baxdrostat effects compared to a placebo. Patients are to administer double-blind baxdrostat tablets once per day while they continue taking the background antihypertensive medications. After 8 weeks of double-blind treatment, patients were to enter part 2 of the study unless the patient was assigned to the 2 mg group and the SBP remains ≥130 mmHg. In part 2 of the study, all patients are to cease dosing with background antihypertensive medication and take only baxdrostat 2 mg dose as a monotherapy for 4 weeks.
# Key inclusion criteria include that patients are on a stable regimen of anti-hypertensive agents for at least 8 weeks; and have a seated BP≥140 mmHg. Key exclusion criteria include a seated SBP≥180 mmHg and estimated glomerular filtration rate (eGFR)<30 mL/min/1.73 m^2.
# In this table, CI=confidence interval, DBP=diastolic blood pressure, LS=least squares, SBP=systolic blood pressure, SE=standard error. The LS means, CIs, and p-values are from an MMRM model with change from baseline as the dependent variable with randomized treatment, visit, and treatment-by-visit interaction as fixed categorical effects; along with covariates of the baseline value, race (African American versus non-African American), and the type of background antihypertensive regimen. The restricted maximum likelihood estimation (REML) approach will be used with an unstructured covariance matrix and the Kenward-Roger approximation for degrees of freedom.
# [1] = 0.5 mg (N = 11), mITT Population for Compliance for Black Patients
# [2] = 0.5 mg (N = 11), mITT, Female Non-Hispanic Female Patients
# [3] = 0.5 mg (N = 12), mITT, Non-Hispanic Male Patients
# [4] = 0.5 mg (N = 15), mITT, Hispanic Male Patients
# [5] = 1 mg (N = 11), mITT, Female Non-Hispanic Female Patients
# [6] = 1 mg (N = 13), mITT Population for Compliance for Black Patients
# [7] = 1 mg (N = 14), mITT, Female Hispanic/Latino Patients
# [8] = 1 mg (N = 14), mITT, Hispanic Male Patients
# [9] = 1 mg (N = 22), mITT, Non-Hispanic Male Patients
compound,measurement,setting,value
"CCC(=O)N[C@@H]1CCCc2c(-c3ccc4c(c3)CCC(=O)N4C)cncc21 [baxdrostat, (R)—N-(4-(1-methyl-2-oxo-1,2,3,4-tetrahydroquinolin-6-yl)-5,6,7,8-tetrahydroisoquinolin-8-yl) propionamide]","SBP Change from Baseline to Week 8, Mean",0.5 mg,−17.0 mmHg
same,"SBP Change from Baseline to Week 8, Median",0.5 mg,−17.0 mmHg
same,"SBP at Week 8, Median",0.5 mg,127.0 mmHg
same,Model-Based Least-Square Mean Change from Baseline (SBP),"0.5 mg (N = 11), Week 2, mITT Population for Compliance for Black Patients",−9.0
same,Model-Based Least-Squares Mean Change from Baseline (SBP),"0.5 mg (N = 11), Week 2, mITT, Female Non-Hispanic Female Patients",−12.5
same,Model-Based Least-Square Mean Change from Baseline (SBP),"0.5 mg (N = 11), Week 4, mITT Population for Compliance for Black Patients",−11.6
same,Model-Based Least-Squares Mean Change from Baseline (SBP),"0.5 mg (N = 11), Week 4, mITT, Female Non-Hispanic Female Patients",−12.2
same,Model-Based Least-Square Mean Change from Baseline (SBP),"0.5 mg (N = 11), Week 6, mITT Population for Compliance for Black Patients",−13.0
same,Model-Based Least-Squares Mean Change from Baseline (SBP),"0.5 mg (N = 11), Week 6, mITT, Female Non-Hispanic Female Patients",−11.8
same,Model-Based Least-Square Mean Change from Baseline (SBP),"0.5 mg (N = 11), Week 8, mITT Population for Compliance for Black Patients",−17.2
same,Model-Based Least-Squares Mean Change from Baseline (SBP),"0.5 mg (N = 11), Week 8, mITT, Female Non-Hispanic Female Patients",−16.7
same,"Comp w/ Placebo at Week 6, Diff (95% CI)",[1],"−2.6 (−14.94, 9.64)"
same,"Comp w/ Placebo at Week 8, Diff (95% CI)",[1],"−3.0 (−13.58, 7.49)"
same,"Comp w/ Placebo at Week 6, Diff (95% CI)",[2],"−1.5 (−13.92, 10.84)"
same,"Comp w/ Placebo at Week 8, Diff (95% CI)",[2],"−3.7 (−13.14, 5.67)"
same,Model-Based Least-Squares Mean Change from Baseline (SBP),"0.5 mg (N = 12), Week 2, mITT, Non-Hispanic Male Patients",−19.9
same,Model-Based Least-Squares Mean Change from Baseline (SBP),"0.5 mg (N = 12), Week 4, mITT, Non-Hispanic Male Patients",−20.5
same,Model-Based Least-Squares Mean Change from Baseline (SBP),"0.5 mg (N = 12), Week 6, mITT, Non-Hispanic Male Patients",−16.3
same,Model-Based Least-Squares Mean Change from Baseline (SBP),"0.5 mg (N = 12), Week 8, mITT, Non-Hispanic Male Patients",−17.2
same,"Comp w/ Placebo at Week 6, Diff (95% CI)",[3],"−6.4 (−17.23, 4.48)"
same,"Comp w/ Placebo at Week 8, Diff (95% CI)",[3],"−2.2 (−12.46, 8.04)"
same,Model-Based Least-Squares Mean Change from Baseline (SBP),"0.5 mg (N = 15), Week 2, mITT, Hispanic Male Patients",−8.3
same,Model-Based Least-Squares Mean Change from Baseline (SBP),"0.5 mg (N = 15), Week 4, mITT, Hispanic Male Patients",−12.6
same,Model-Based Least-Squares Mean Change from Baseline (SBP),"0.5 mg (N = 15), Week 6, mITT, Hispanic Male Patients",−16.0
same,Model-Based Least-Squares Mean Change from Baseline (SBP),"0.5 mg (N = 15), Week 8, mITT, Hispanic Male Patients",−18.6
same,"Comp w/ Placebo at Week 6, Diff (95% CI)",[4],"−4.7 (−12.73, 3.30)"
same,"Comp w/ Placebo at Week 8, Diff (95% CI)",[4],"0.1 (−6.20, 6.41)"
same,"SBP at Week 8, Mean","0.5 mg QD, mITT",129.1 mmHg
same,"SBP LS mean change from baseline (SE), MMRM","0.5 mg, Week 8",−17 (1.63) mm Hg
same,SBP LS mean difference (SE) vs placebo,"0.5 mg, Week 8",−0.5 (2.21) mmHg
same,LS Mean Change from Baseline (SE) in SBP,"0.5 mg, Wk 2",−10.3 (1.61) mm Hg
same,LS Mean Change from Baseline (SE) in SBP,"0.5 mg, Wk 4",−14.2 (1.61) mm Hg
same,LS Mean Change from Baseline (SE) in SBP,"0.5 mg, Wk 6",−13.5 (1.88) mm Hg
same,"SBP Change from Baseline to Week 8, Mean",1 mg,−16.6 mmHg
same,"SBP Change from Baseline to Week 8, Median",1 mg,−16.0 mmHg
same,"SBP at Week 8, Median",1 mg,128.0 mmHg
same,Model-Based Least-Squares Mean Change from Baseline (SBP),"1 mg (N = 11), Week 2, mITT, Female Non-Hispanic Female Patients",−11.8
same,Model-Based Least-Squares Mean Change from Baseline (SBP),"1 mg (N = 11), Week 4, mITT, Female Non-Hispanic Female Patients",−13.5
same,Model-Based Least-Squares Mean Change from Baseline (SBP),"1 mg (N = 11), Week 6, mITT, Female Non-Hispanic Female Patients",−20.3
same,Model-Based Least-Squares Mean Change from Baseline (SBP),"1 mg (N = 11), Week 8, mITT, Female Non-Hispanic Female Patients",−23.8
same,"Comp w/ Placebo at Week 6, Diff (95% CI)",[5],"−10.0 (−22.06, 2.15)"
same,"Comp w/ Placebo at Week 8, Diff (95% CI)",[5],"−10.8 (−20.05, −1.63)"
same,Model-Based Least-Square Mean Change from Baseline (SBP),"1 mg (N = 13), Week 2, mITT Population for Compliance for Black Patients",−8.9
same,Model-Based Least-Square Mean Change from Baseline (SBP),"1 mg (N = 13), Week 4, mITT Population for Compliance for Black Patients",−11.8
same,Model-Based Least-Square Mean Change from Baseline (SBP),"1 mg (N = 13), Week 6, mITT Population for Compliance for Black Patients",−13.5
same,Model-Based Least-Square Mean Change from Baseline (SBP),"1 mg (N = 13), Week 8, mITT Population for Compliance for Black Patients",−17.4
same,"Comp w/ Placebo at Week 6, Diff (95% CI)",[6],"−3.1 (−14.59, 8.31)"
same,"Comp w/ Placebo at Week 8, Diff (95% CI)",[6],"−3.2 (−12.88, 6.52)"
same,Model-Based Least-Squares Mean Change from Baseline (SBP),"1 mg (N = 14), Week 2, mITT, Female Hispanic/Latino Patients",−7.8
same,Model-Based Least-Squares Mean Change from Baseline (SBP),"1 mg (N = 14), Week 2, mITT, Hispanic Male Patients",−7.0
same,Model-Based Least-Squares Mean Change from Baseline (SBP),"1 mg (N = 14), Week 4, mITT, Female Hispanic/Latino Patients",−10.3
same,Model-Based Least-Squares Mean Change from Baseline (SBP),"1 mg (N = 14), Week 4, mITT, Hispanic Male Patients",−6.4
same,Model-Based Least-Squares Mean Change from Baseline (SBP),"1 mg (N = 14), Week 6, mITT, Female Hispanic/Latino Patients",−12.6
same,Model-Based Least-Squares Mean Change from Baseline (SBP),"1 mg (N = 14), Week 6, mITT, Hispanic Male Patients",−9.2
same,Model-Based Least-Squares Mean Change from Baseline (SBP),"1 mg (N = 14), Week 8, mITT, Female Hispanic/Latino Patients",−12.7
same,Model-Based Least-Squares Mean Change from Baseline (SBP),"1 mg (N = 14), Week 8, mITT, Hispanic Male Patients",−15.8
same,"Comp w/ Placebo at Week 6, Diff (95% CI)",[7],"−6.2 (−19.55, 7.07)"
same,"Comp w/ Placebo at Week 8, Diff (95% CI)",[7],"6.4 (−5.38, 18.10)"
same,"Comp w/ Placebo at Week 6, Diff (95% CI)",[8],"2.1 (−6.16, 10.29)"
same,"Comp w/ Placebo at Week 8, Diff (95% CI)",[8],"2.9 (−3.41, 9.25)"
same,Model-Based Least-Squares Mean Change from Baseline (SBP),"1 mg (N = 22), Week 2, mITT, Non-Hispanic Male Patients",−6.8
same,Model-Based Least-Squares Mean Change from Baseline (SBP),"1 mg (N = 22), Week 4, mITT, Non-Hispanic Male Patients",−10.3
same,Model-Based Least-Squares Mean Change from Baseline (SBP),"1 mg (N = 22), Week 6, mITT, Non-Hispanic Male Patients",−14.2
same,Model-Based Least-Squares Mean Change from Baseline (SBP),"1 mg (N = 22), Week 8, mITT, Non-Hispanic Male Patients",−14.7
same,"Comp w/ Placebo at Week 6, Diff (95% CI)",[9],"−4.3 (−13.56, 5.00)"
same,"Comp w/ Placebo at Week 8, Diff (95% CI)",[9],"0.2 (−8.82, 9.26)"
same,"SBP at Week 8, Mean","1 mg QD, mITT",130.8 mmHg
same,"SBP LS mean change from baseline (SE), MMRM","1 mg, Week 8",−16 (1.62) mm Hg
same,SBP LS mean difference (SE) vs placebo,"1 mg, Week 8",0.6 (2.20) mmHg
same,LS Mean Change from Baseline (SE) in SBP,"1 mg, Wk 2",−7.7 (1.6) mm Hg
same,LS Mean Change from Baseline (SE) in SBP,"1 mg, Wk 4",−9.7 (1.59) mm Hg
